How the values were obtained:
Assay in all cases: preemergence treatment in the greenhouse, % damage
Glyc. max = format: in vivo, Glycine max
Source text: (§1) The vessels employed were plastic flowerpots having a volume of 300 cm^3; the substrate was a sandy loam containing about 1.5% humus. The seeds of the test plants (see Table 1) were sown shallow, and separated according to species. In the case of Cyperus esculentus, pregerminated tubers were planted. In the preemergence treatment, the active ingredients were then immediately applied to the surface of the soil. They were suspended or emulsified in water as the vehicle, and sprayed through atomizing nozzles. After the agents had been applied, the vessels were lightly sprinkler-irrigated to set germination and growth going, and to activate the chemical agents. The vessels were then covered with transparent plastic hoods until the plants had taken root. This cover ensured uniform germination of the test plants (to the extent that this was not impaired by the chemicals), and prevented readily volatile substances from evaporating.
(§2) For postemergence treatment, the plants were first grown to a height of from 3 to 10 cm, depending on their habit, before treated. Hoods were not placed on the pots. The experiments were set up in the greenhouse, hotter areas (25° to 40° C.) being preferred for heat-loving species, and 15° to 30° C. for plants from moderate climates. The experiments were carried out for from 4 to 6 weeks. During this period the plants were tended and their reaction to the various treatments was assessed. The following tables contain the substances investigated, the application rates in kg/ha of active ingredient, and the test plant species. Assessments were made on a 0 to 100 scale, 0 denoting no damage or normal emergence, and 100 denoting no emergence or complete destruction of at least the visible plant parts.

Gossyp. hirs. = format: in vivo, Gosspyium hirsutum
Source text: as §1, §2

Euph. gen. = format: in vivo
Source text: as §1, §2

Setaria spp. = format: in vivo
Source text: as §1, §2

Echin. c.g. = format: in vivo
Source text: as §1, §2

Matric. spp. = format: in vivo
Source text: as §1, §2

Cyp. diff. = format: in vivo
Source text: as §1, §2

Sorgh. halep. = format: in vivo
Source text: as §1, §2

Alopec. myosur. = format: in vivo
Source text: as §1, §2

Amar. retro. = format: in vivo
Source text: as §1, §2

Stell. med. = format: in vivo
Source text: as §1, §2

Sorgh. bicol. = format: in vivo, Sorghum bicolor
Source text: as §1, §2

Beta vulg. = format: in vivo, Beta vulgaris
Source text: as §1, §2

Zea mays = format: in vivo
Source text: as §1, §2

Row | SMILES | % damage (Glyc. max; 1.0 kg/ha) [%] | % damage (Gossyp. hirs.; 0.5 kg/ha) [%] | % damage (Gossyp. hirs.; 1.0 kg/ha) [%] | % damage (Euph. gen.; 0.5 kg/ha) [%] | % damage (Euph. gen.; 1.0 kg/ha) [%] | % damage (Setaria spp.; 0.5 kg/ha) [%] | % damage (Setaria spp.; 1.0 kg/ha) [%] | % damage (Echin. c.g.; 0.5 kg/ha) [%] | % damage (Echin. c.g.; 1.0 kg/ha) [%] | % damage (Matric. spp.; 0.5 kg/ha) [%] | % damage (Matric. spp.; 1.0 kg/ha) [%] | % damage (Cyp. diff.; 0.5 kg/ha) [%] | % damage (Cyp. diff.; 1.0 kg/ha) [%] | % damage (Sorgh. halep.; 0.5 kg/ha) [%] | % damage (Sorgh. halep.; 1.0 kg/ha) [%] | % damage (Alopec. myosur.; 0.5 kg/ha) [%] | % damage (Alopec. myosur.; 1.0 kg/ha) [%] | % damage (Amar. retro.; 0.5 kg/ha) [%] | % damage (Amar. retro.; 1.0 kg/ha) [%] | % damage (Stell. med.; 0.5 kg/ha) [%] | further results
1 | Cc1ccc(C)c(N(Cn2cccn2)C(=O)CCl)c1C [Compound 14] | 20 | 0 | 15 | 95 | 95 | 100 | 100 | 100 | 100 | 100 | 100 | 100 | 100 | 95 | 100 | 100 | 100 | 100 | 100 | 100 | % damage (Glyc. max; 0.25 kg/ha): 10%; % damage (Glyc. max; 0.5 kg/ha): 10%; % damage (Gossyp. hirs.; 0.25 kg/ha): 0%; % damage (Euph. gen.; 0.25 kg/ha): 80%; % damage (Setaria spp.; 0.25 kg/ha): 100%; % damage (Echin. c.g.; 0.25 kg/ha): 100%; % damage (Matric. spp.; 0.25 kg/ha): 80%; % damage (Cyp. diff.; 0.25 kg/ha): 100%; % damage (Sorgh. halep.; 0.25 kg/ha): 95%; % damage (Alopec. myosur.; 0.25 kg/ha): 95%; % damage (Amar. retro.; 0.25 kg/ha): 100%; % damage (Stell. med.; 0.25 kg/ha): 90%; % damage (Stell. med.; 1.0 kg/ha): 100%
2 | Cc1cccc(C)c1N(Cn1nc(C)c(Cl)c1C)C(=O)CCl [Compound 106] | 10 | – | – | – | – | – | 90 | – | – | – | – | – | – | – | – | – | 100 | – | 95 | – | % damage (Glyc. max; 2.0 kg/ha): 10%; % damage (Sorgh. bicol.; 1.0 kg/ha): 70%; % damage (Sorgh. bicol.; 2.0 kg/ha): 70%; % damage (Beta vulg.; 1.0 kg/ha): 10%; % damage (Beta vulg.; 2.0 kg/ha): 10%; % damage (Setaria spp.; 2.0 kg/ha): 95%; % damage (Alopec. myosur.; 2.0 kg/ha): 100%; % damage (Amar. retro.; 2.0 kg/ha): 95%; % damage (Zea mays; 1.0 kg/ha): 15%; % damage (Zea mays; 2.0 kg/ha): 50%
3 | Cc1ccn(CN(C(=O)CCl)c2ccccc2C(C)C)n1 [Compound 72] | 10 | – | – | – | – | – | 90 | – | – | – | – | – | – | – | – | – | 100 | – | 95 | – | % damage (Glyc. max; 2.0 kg/ha): 20%; % damage (Sorgh. bicol.; 1.0 kg/ha): 20%; % damage (Sorgh. bicol.; 2.0 kg/ha): 40%; % damage (Beta vulg.; 1.0 kg/ha): 10%; % damage (Beta vulg.; 2.0 kg/ha): 10%; % damage (Setaria spp.; 2.0 kg/ha): 95%; % damage (Alopec. myosur.; 2.0 kg/ha): 100%; % damage (Amar. retro.; 2.0 kg/ha): 95%; % damage (Zea mays; 1.0 kg/ha): 0%; % damage (Zea mays; 2.0 kg/ha): 10%
4 | Cc1ccc(C)c(N(Cn2cncn2)C(=O)CCl)c1C [Compound 136] | – | 10 | 10 | 45 | 65 | 90 | 100 | 95 | 95 | 50 | 90 | 90 | 90 | 80 | 80 | 50 | 90 | 70 | 70 | 30 | % damage (Stell. med.; 1.0 kg/ha): 80%

Source: patent publication US4593104A, “2-halo-N-(azole-1-yl-methyl)-substituted acetanilides” (BASF Aktiengesellschaft, priority 1976, dated 1986)
